The supplement of paper PMC10331698
± gives the standard deviation of the averaged measurements.

Assays:
Test in all cases: level (log10 ratio to DMSO vehicle control); higher = higher biomarker level / cell amount than vehicle control
[1] = compound: C=CC(=O)OCC(F)(F)C(F)(F)C(F)(F)COC(=O)C=C [1H,1H,5H,5H-Perfluoro-1,5-pentanediol diacrylate]; settings: 6700 nM; in DMSO
Experimental: (§1)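 BioMAP Diversity Plus panel of 12 human primary cell co-culture systems (3C, 4H, LPS, SAg, BT, BF4T, BE3C, CASM3C, HDF3CGF, KF3CT, MyoF, Mphg). Compounds were added 1 h before stimulation and left for 24 h (MyoF 48 h; BT 72 h for soluble read-outs or 6 d for IgG). Biomarkers were read by ELISA, cytotoxicity by SRB, PBMC viability and proliferation by Alamar Blue. Each well value was divided by the mean of 8 DMSO control wells on the same plate and log10 transformed; duplicate blinded samples were tested at 4 concentrations.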

[2] = compound: C=C(C)C(=O)OCCC(F)(F)C(F)(F)C(F)(F)C(F)(F)C(F)(F)C(F)(F)F [6:2 Fluorotelomer methacrylate]; settings: in DMSO
Experimental: as §1

[3] = compound: NS(=O)(=O)C(F)(F)C(F)(F)C(F)(F)C(F)(F)C(F)(F)C(F)(F)F [Perfluorohexanesulfonamide]; settings: in DMSO
Experimental: as §1

Octafluoroadipamide = compound: NC(=O)C(F)(F)C(F)(F)C(F)(F)C(F)(F)C(N)=O [Octafluoroadipamide]; settings: in DMSO
Experimental: as §1

[4] = compound: FC(F)(F)C(F)(F)C(F)(F)C(F)(F)C(F)(F)C(F)(F)C(F)(F)I [1-Iodopentadecafluoroheptane]; settings: in DMSO
Experimental: as §1

[5] = compound: FC(F)(F)C(F)(F)C(F)(F)CC1CO1 [1H,1H-Heptafluorobutyl epoxide]; settings: in DMSO
Experimental: as §1

Test System | level (log10) [1] | level (log10) ([2]; 6700 nM) | level (log10) ([2]; 20000 nM) | level (log10) ([2]; 60000 nM) | level (log10) ([3]; 6700 nM) | level (log10) ([3]; 20000 nM) | level (log10) ([3]; 60000 nM) | level (log10) (Octafluoroadipamide; 6700 nM) | level (log10) (Octafluoroadipamide; 20000 nM) | level (log10) (Octafluoroadipamide; 60000 nM) | level (log10) ([4]; 6700 nM) | level (log10) ([4]; 20000 nM) | level (log10) ([5]; 6700 nM) | level (log10) ([5]; 20000 nM) | level (log10) ([5]; 60000 nM)
BF4T:CCL26/Eotaxin-3 | -0.04 ± 0.0028 | 0.0285 ± 0.025 | -0.001 ± 0.11 | 0.041 ± 0.055 | -0.017 ± 0.018 | -0.064 ± 0.0028 | -0.151 ± 0.012 | -0.0045 ± 0.046 | 0.0065 ± 0.052 | 0.0075 ± 0.029 | -0.04 ± 0.048 | -0.0305 ± 0.042 | -0.001 ± 0.013 | 0.0095 ± 0.0035 | 0.01 ± 0.011
BF4T:CD90 | -0.0195 ± 0.018 | -0.004 ± 0.0057 | -0.007 ± 0.0057 | -0.0065 ± 0.0021 | -0.0055 ± 0.00071 | -0.0085 ± 0.0078 | -0.035 ± 0.0099 | -0.0155 ± 0.0078 | -0.0145 ± 0.0021 | -0.0125 ± 0.021 | 0.001 ± 0.016 | -0.0025 ± 0.0021 | -0.026 ± 0.014 | -0.0175 ± 0.0092 | -0.0125 ± 0.0078
BF4T:CD106/VCAM-1 | -0.0685 ± 0.026 | 0.008 ± 0.079 | 0.039 | -0.0215 ± 0.028 | -0.0295 ± 0.022 | -0.104 ± 0.0099 | -0.198 ± 0.013 | -0.0265 ± 0.021 | -0.0215 ± 0.016 | 0.0155 ± 0.061 | -0.005 ± 0.011 | -0.031 ± 0.0028 | -0.0055 ± 0.015 | -0.015 ± 0.017 | -0.021 ± 0.0071
BF4T:CXCL8/IL-8 | -0.0315 ± 0.037 | 0.032 ± 0.061 | 0.028 ± 0.037 | 0.0435 ± 0.033 | -0.031 ± 0.052 | -0.051 ± 0.034 | -0.073 ± 0.02 | -0.0185 ± 0.0064 | -0.022 ± 0.011 | -0.003 ± 0.044 | 0.0515 ± 0.079 | 0.0425 ± 0.044 | 0.023 ± 0.041 | 0.0165 ± 0.03 | 0.0325 ± 0.05
BF4T:IL-1alpha | 0.0055 ± 0.036 | -0.025 ± 0.041 | -0.0245 ± 0.025 | -0.0125 ± 0.018 | -0.006 ± 0.0042 | -0.008 ± 0.017 | -0.0675 ± 0.016 | 0.007 ± 0.0071 | -0.005 ± 0.0071 | 0.0215 ± 0.018 | -0.0035 ± 0.0035 | 0.003 ± 0.0014 | 0.0165 ± 0.015 | 0.0095 ± 0.016 | 0.0355 ± 0.053
